Among the data in ChEMBL document CHEMBL1140961, “Synthesis and biological activity of some new benzoxazoles” (2008) are MIC values, retold here.

Each structure is given as a SMILES string. Converted amounts (≈) assume the structure as drawn.

Common to all, as to format: functional
In test [1] the test system is Staphylococcus aureus. Kind of test: Antimicrobial activity against Staphylococcus aureus ATCC 25923 after 24 hrs by disk diffusion method. Particulars: ATCC 25923, 24 h. (In general: A growth-free zone around the sample is the usual read-out of agar diffusion tests.)
The test system of test [2] is Staphylococcus aureus. Kind of test: Antimicrobial activity against Staphylococcus aureus isolate after 24 hrs by disk diffusion method.
Test [3] deals with Bacillus subtilis. Kind of test: Antimicrobial activity against Bacillus subtilis ATCC 6633 after 24 hrs by disk diffusion method. The settings on record: ATCC 6633, 24 h.
Test [4] deals with Bacillus subtilis. Nature of the test: Antimicrobial activity against Bacillus subtilis isolate after 24 hrs by disk diffusion method.
The test system of test [5] is Escherichia coli. Nature of the test: Antimicrobial activity against Escherichia coli ATCC 25922 after 24 hrs by disk diffusion method. The settings on record: ATCC 25922, 24 h.
Test [6] concerns Escherichia coli. Nature of the test: Antimicrobial activity against Escherichia coli isolate after 24 hrs by disk diffusion method.
In test [7] the test system is Klebsiella pneumoniae. Kind of test: Antimicrobial activity against Klebsiella pneumoniae RSHM 574 after 24 hrs by disk diffusion method.
Test [8] has as its system Klebsiella pneumoniae. Nature of the test: Antimicrobial activity against Klebsiella pneumoniae after 24 hrs by disk diffusion method.
The next test relates to Pseudomonas aeruginosa. Nature of the test: Antimicrobial activity against Pseudomonas aeruginosa ATCC […] after 24 hrs by disk diffusion method. The settings on record: ATCC 25853, 24 h.
The subject of test [9] is Candida albicans. Kind of test: Antimicrobial activity against Candida albicans ATCC 10231 after 24 to 48 hrs after 24 hrs by disk diffusion method.
Test [10] deals with Candida albicans. Kind of test: Antimicrobial activity against Candida albicans isolate after 24 to 48 hrs after 24 hrs by disk diffusion method.

For the compound `CCS(=O)(=O)c1ccc2oc(-c3ccccc3F)nc2c1`, the minimum inhibitory concentration (MIC) with Staphylococcus aureus [1] amounted to 125 µg/mL (≈ 409 µM); in the test with Staphylococcus aureus [2] it was 125 µg/mL (≈ 409 µM); in the test on Bacillus subtilis [3], 62.5 µg/mL (≈ 205 µM); in the test with Bacillus subtilis [4], 31.2 µg/mL (≈ 102 µM); in the test with Escherichia coli [5] it was 62.5 µg/mL (≈ 205 µM); against Escherichia coli [6], 250 µg/mL (≈ 819 µM). In addition, the minimum inhibitory concentration (MIC) in the test with Klebsiella pneumoniae [7] was determined as 31.2 µg/mL (≈ 102 µM); against Klebsiella pneumoniae [8], 125 µg/mL (≈ 409 µM); in the test with Pseudomonas aeruginosa, 62.5 µg/mL (≈ 205 µM); against Candida albicans [9], 62.5 µg/mL (≈ 205 µM); in the test with Candida albicans [10] it was 62.5 µg/mL (≈ 205 µM).
In the case of `CCc1ccc(-c2nc3cc(S(=O)(=O)CC)ccc3o2)cc1`, the minimal inhibitory concentration (MIC) was determined as 125 µg/mL (≈ 396 µM) against Staphylococcus aureus [1]; 125 µg/mL (≈ 396 µM) with Staphylococcus aureus [2]; 31.2 µg/mL (≈ 99.1 µM) with Bacillus subtilis [3]; 31.2 µg/mL (≈ 99.1 µM) against Bacillus subtilis [4]; 62.5 µg/mL (≈ 198 µM) in the test with Escherichia coli [5]; 62.5 µg/mL (≈ 198 µM) with Escherichia coli [6]. Also, the MIC in the test with Klebsiella pneumoniae [7] was determined as 62.5 µg/mL (≈ 198 µM); against Klebsiella pneumoniae [8], 125 µg/mL (≈ 396 µM); against Pseudomonas aeruginosa, 62.5 µg/mL (≈ 198 µM); with Candida albicans [9], 125 µg/mL (≈ 396 µM); in the test on Candida albicans [10] it was 15.6 µg/mL (≈ 49.5 µM).
With `CCS(=O)(=O)c1ccc2oc(-c3ccc(Br)cc3)nc2c1`, the MIC against Staphylococcus aureus [1] amounted to 125 µg/mL (≈ 341 µM); against Staphylococcus aureus [2], 125 µg/mL (≈ 341 µM); in the test on Bacillus subtilis [3], 15.6 µg/mL (≈ 42.7 µM); with Bacillus subtilis [4], 31.2 µg/mL (≈ 85.3 µM); against Escherichia coli [5] it was 62.5 µg/mL (≈ 171 µM); against Escherichia coli [6] it was 62.5 µg/mL (≈ 171 µM). For the same compound, the MIC against Klebsiella pneumoniae [7] is 62.5 µg/mL (≈ 171 µM); in the test on Klebsiella pneumoniae [8], 125 µg/mL (≈ 341 µM); with Pseudomonas aeruginosa, 62.5 µg/mL (≈ 171 µM); against Candida albicans [9] it was 125 µg/mL (≈ 341 µM); against Candida albicans [10] it was 31.2 µg/mL (≈ 85.3 µM).
In the case of `CCS(=O)(=O)c1ccc2oc(-c3ccc([N+](=O)[O-])cc3)nc2c1`, the minimal inhibitory concentration (MIC) in the test on Staphylococcus aureus [1] is 125 µg/mL (≈ 376 µM); against Staphylococcus aureus [2], 125 µg/mL (≈ 376 µM); in the test with Bacillus subtilis [3], 31.2 µg/mL (≈ 94 µM); in the test with Bacillus subtilis [4] it was 15.6 µg/mL (≈ 47 µM); in the test with Escherichia coli [5] it was 62.5 µg/mL (≈ 188 µM); against Escherichia coli [6], 62.5 µg/mL (≈ 188 µM). In addition, the MIC in the test with Klebsiella pneumoniae [7] was found to be 125 µg/mL (≈ 376 µM); in the test on Klebsiella pneumoniae [8], 125 µg/mL (≈ 376 µM); in the test on Pseudomonas aeruginosa, 62.5 µg/mL (≈ 188 µM); in the test with Candida albicans [9], 125 µg/mL (≈ 376 µM); with Candida albicans [10], 62.5 µg/mL (≈ 188 µM).
With `CCS(=O)(=O)c1ccc2oc(-c3ccccc3Br)nc2c1`, the MIC was determined as 125 µg/mL (≈ 341 µM) in the test on Staphylococcus aureus [1]; 125 µg/mL (≈ 341 µM) with Staphylococcus aureus [2]; 15.6 µg/mL (≈ 42.7 µM) against Bacillus subtilis [3]; 31.2 µg/mL (≈ 85.3 µM) in the test on Bacillus subtilis [4]; 62.5 µg/mL (≈ 171 µM) against Escherichia coli [5]; 250 µg/mL (≈ 683 µM) against Escherichia coli [6]. The MIC stood at 31.2 µg/mL (≈ 85.3 µM) in the test on Klebsiella pneumoniae [7]; 125 µg/mL (≈ 341 µM) in the test with Klebsiella pneumoniae [8]; 62.5 µg/mL (≈ 171 µM) against Pseudomonas aeruginosa; 62.5 µg/mL (≈ 171 µM) in the test with Candida albicans [9]; 62.5 µg/mL (≈ 171 µM) with Candida albicans [10].
As for `CCS(=O)(=O)c1ccc2oc(Cc3ccc(Br)cc3)nc2c1`, the MIC against Staphylococcus aureus [1] was 125 µg/mL (≈ 329 µM); against Staphylococcus aureus [2], 125 µg/mL (≈ 329 µM); in the test with Bacillus subtilis [3], 62.5 µg/mL (≈ 164 µM); with Bacillus subtilis [4], 15.6 µg/mL (≈ 41.1 µM); against Escherichia coli [5] it was 62.5 µg/mL (≈ 164 µM); with Escherichia coli [6], 125 µg/mL (≈ 329 µM). The MIC in the test with Klebsiella pneumoniae [7] stood at 62.5 µg/mL (≈ 164 µM); in the test with Klebsiella pneumoniae [8], 125 µg/mL (≈ 329 µM); in the test on Pseudomonas aeruginosa, 62.5 µg/mL (≈ 164 µM); against Candida albicans [9] it was 62.5 µg/mL (≈ 164 µM); against Candida albicans [10] it was 62.5 µg/mL (≈ 164 µM).
Consider `CCS(=O)(=O)c1ccc2oc(-c3ccccc3)nc2c1`, for which the MIC amounted to 125 µg/mL (≈ 435 µM) against Staphylococcus aureus [1]; 125 µg/mL (≈ 435 µM) with Staphylococcus aureus [2]; 62.5 µg/mL (≈ 218 µM) against Bacillus subtilis [3]; 31.2 µg/mL (≈ 109 µM) against Bacillus subtilis [4]; 62.5 µg/mL (≈ 218 µM) in the test on Escherichia coli [5]; 62.5 µg/mL (≈ 218 µM) against Escherichia coli [6]. The MIC worked out at 125 µg/mL (≈ 435 µM) against Klebsiella pneumoniae [7]; 125 µg/mL (≈ 435 µM) in the test on Klebsiella pneumoniae [8]; 62.5 µg/mL (≈ 218 µM) in the test on Pseudomonas aeruginosa; 125 µg/mL (≈ 435 µM) against Candida albicans [9]; 31.2 µg/mL (≈ 109 µM) in the test on Candida albicans [10].
For `CCS(=O)(=O)c1ccc2oc(Cc3ccc(F)cc3)nc2c1`, the MIC is 125 µg/mL (≈ 391 µM) in the test on Staphylococcus aureus [1]; 125 µg/mL (≈ 391 µM) in the test with Staphylococcus aureus [2]; 62.5 µg/mL (≈ 196 µM) in the test on Bacillus subtilis [3]; 31.2 µg/mL (≈ 97.9 µM) against Bacillus subtilis [4]; 62.5 µg/mL (≈ 196 µM) against Escherichia coli [5]; 125 µg/mL (≈ 391 µM) in the test on Escherichia coli [6]. Moreover, the MIC turned out to be 31.2 µg/mL (≈ 97.9 µM) with Klebsiella pneumoniae [7]; 125 µg/mL (≈ 391 µM) with Klebsiella pneumoniae [8]; 62.5 µg/mL (≈ 196 µM) against Pseudomonas aeruginosa; 62.5 µg/mL (≈ 196 µM) in the test with Candida albicans [9]; 31.2 µg/mL (≈ 97.9 µM) in the test on Candida albicans [10].

The MIC is the lowest concentration found to suppress growth.
